Measured values taken from patent US20230165818A1, “COMPOSITION FOR REDUCING HEPATIC TRIGLYCERIDES AND/OR IMPROVING GLUCOSE METABOLISM” (Compagnie Gervais Danone, priority 2020, published 2023).

What was measured:
[1] = test system: L6 myocytes; experiment: Glucose uptake in L6 muscle cells; type: cell-based; details: 0.01, 0.1 or 1 μM, basal and insulin conditions (FIGS. 2G and H)
Method: FIG. 2. (A) HGP of FAO cells treated with a 1 mM mixture of HICA: HIVA: HMVA at molar ratio 1:1:0.5 in basal condition. (B) HGP of FAO cells treated with a 1 mM mixture of HICA: HIVA: HMVA at molar ratio 1:1:0.5 in insulin condition. (C) HGP of FAO cells treated with 0.5 and 1 mM of HICA, leucine or combination of both in basal condition. (D) HGP of FAO cells treated with 0.5 and 1 mM of HICA, leucine or combination of both in insulin condition. (E) Glucose uptake of L6 muscle cells treated with a 0.1 or 1 μM mixture of HICA: HIVA: HMVA at molar ratio 1:1:0.5 in basal condition. (F) Glucose uptake of L6 cells treated with a 0.1 or 1 μM mixture of HICA: HIVA: HMVA at molar ratio 1:1:0.5 in insulin condition. (G) Glucose uptake of L6 cells treated with 0.01, 0.1 or 1 μM of HICA in basal condition. (H) Glucose uptake of L6 cells treated with 0.01, 0.1 or 1 μM of HICA in insulin condition.*p<0.05 versus control, **p<0.01 versus control, ***p<0.001 vs control, kp<0.05 versus Leu 0.5 mM, ^$ p<0.05 versus Leu 1 mM, ^$$ p<0.01 versus Leu 1 mM, ^$$$ p<0.001 versus Leu 1 mM. For panel C, D, G, H expressed in fold, basal and basal insulin are considered as a reference and represented by a dash line.
The Inventors elected to test the hypothesis that BCHA could exert direct effects in relevant cells. […]

[2] = test system: FAO rat hepatocytes; experiment: Hepatic glucose production (HGP) in FAO cells; type: cell-based
Method: FAO rat hepatocytes were maintained in RPMI 1640 medium (Invitrogen) supplemented with 10% FBS. Cells were maintained in this medium 48 h before treatment. They were then serum-deprived overnight for 16 h with or without insulin (1 nM) and with HICA, HIVA or HMVA product at 10 nM, 100 nM, 1 μM, 10 μM, 100 μM and 1 mM. The cells were washed three times with PBS and incubated with phenol red- and glucose-free DMEM medium supplemented with 20 mM sodium L-lactate and 2 mM sodium pyruvate for 5 h with or without insulin and the indicated study treatment. Cell supernatant was collected, and glucose concentration was measured with the Amplex-Red Glucose assay kit accordingly to the manufacturer's instructions (Invitrogen). Cells were lysed with 50 mM NaOH, and protein concentration was determined using a BCA protein assay kit to normalize glucose production.

CC(C)CC(O)C(=O)O (stereo not drawn) [HICA, alpha-hydroxyisocaproic acid]
glucose uptake, individual BCHA [1]: these effects appeared to be mostly explained by HICA | effect on HGP in combination with leucine ([2]; 0.5 and 1 mM HICA combined with leucine (FIGS. 2C and D)): competed the effect of its BCAA leucine precursor | basal HGP ([2]; 0.5 and 1 mM, basal condition (FIG. 2C)): dose-dependently inhibited | insulin-suppressed HGP ([2]; 0.5 and 1 mM, insulin condition (FIG. 2D)): dose-dependently inhibited
